Measurements as given in ChEMBL document CHEMBL2417480, “Bioactive polyprenylated acylphloroglucinol derivatives from Hypericum cohaerens” (J Nat Prod, 2013).

How the values were obtained:
MCF7 = experiment: Cytotoxicity against human MCF7 cells after 48 hrs by MTT assay; settings: MCF7, 48 h
HL-60 = experiment: Cytotoxicity against human HL60 cells after 48 hrs by MTT assay; settings: HL-60, 48 h
SW480 = experiment: Cytotoxicity against human SW480 cells after 48 hrs by MTT assay; settings: SW480, 48 h
A549 = experiment: Cytotoxicity against human A549 cells after 48 hrs by MTT assay; settings: A549, 48 h
SMMC-7721 = experiment: Cytotoxicity against human SMMC7721 cells after 48 hrs by MTT assay; settings: SMMC-7721, 48 h

Structure (SMILES) | IC50 (MCF7) [µM] | IC50 (HL-60) [µM] | IC50 (SW480) [µM] | IC50 (A549) [µM] | IC50 (SMMC-7721) [µM]
CCC(C)C(=O)[C@@]12C(=O)C3=C(OC(C)(C)C=C3)[C@@](CC=C(C)C)(C[C@H](CC=C(C)C)[C@@]1(C)CCC=C(C)C)C2=O (stereo partly drawn) | > 20 | > 20 | > 20 | > 20 | > 20
CC(C)=CCC[C@]1(C)[C@@H](CC=C(C)C)C[C@]23C[C@@H](C(C)C)OC2=C(CC=C(C)C)C(=O)[C@@]1(C(=O)C(C)C)C3=O | > 20 | > 20 | > 20 | > 20 | > 20
CCC(C)C(=O)[C@@]12C(=O)C(CC=C(C)C)=C3O[C@@H](C(C)(C)O)C[C@]3(C[C@H](CC=C(C)C)[C@@]1(C)CCC=C(C)C)C2=O (stereo partly drawn) | > 20 | > 20 | > 20 | > 20 | > 20
CC(C)=CCC[C@]1(C)[C@@H](CC=C(C)C)C[C@]23C[C@H](C(C)(C)O)OC2=C(CC=C(C)C)C(=O)[C@@]1(C(=O)C(C)C)C3=O | > 20 | > 20 | > 20 | > 20 | > 20
CC(C)=CCC[C@]1(C)[C@@H](CC=C(C)C)C[C@]23C[C@@H](C(C)(C)O)OC2=C(C[C@@H]2OC(C)(C)[C@@H](CO)C2(C)C)C(=O)[C@@]1(C(=O)C(C)C)C3=O | 10.2 | 5.8 | 15.6 | 11.3 | > 20
CC(C)=CCC[C@]1(C)[C@@H](CC=C(C)C)C[C@]23C[C@@H](C(C)(C)O)OC2=C(C[C@@H]2OC(C)(C)[C@@H](CO)C2(C)C)C(=O)[C@@]1(C(=O)c1ccccc1)C3=O | > 20 | 12.6 | 9.2 | 17.9 | 8.2
CC(C)=CCC[C@]1(C)[C@@H](CC=C(C)C)C[C@]23C[C@@H](C(C)(C)O)OC2=C(C[C@H]2OC(C)(C)[C@H](CO)C2(C)C)C(=O)[C@@]1(C(=O)C(C)C)C3=O | 9.3 | 8.8 | 7.4 | 5.6 | 9.5
CC(C)=CCC[C@]1(C)[C@@H](CC=C(C)C)C[C@]23C[C@@H](C(C)C)OC2=C(CC=C(C)C)C(=O)[C@@]1(C(=O)c1ccccc1)C3=O | > 20 | > 20 | > 20 | > 20 | > 20
CC(=O)O[C@H]1C(=O)[C@@]2(C)[C@H]([C@H](OC(=O)c3ccccc3)[C@]3(O)C[C@H](OC(=O)[C@H](O)[C@@H](NC(=O)c4ccccc4)c4ccccc4)C(C)=C1C3(C)C)[C@]1(OC(C)=O)CO[C@@H]1C[C@@H]2O [PACLITAXEL] | < 0.008 | < 0.008 |  |  | < 0.008
